US20260240901A1, “COMBINATION OF NITROUS OXIDE AND 5-HT2A RECEPTOR AGONISTS” (Cybin IRL Limited, priority 2022, published 2026)
Like-named read-outs stand apart in the source and are kept apart here.

Legend:
[1] = Brain pharmacokinetics of co-administered DMT and DMT-d10 in male rats (IV bolus); format: in vivo, Sprague Dawley rats; conditions: for Brain Cmax: IV bolus 1 mg/kg each, co-dosed (Group 4)
Description: Experimental Design. This was a single dose study with 4 treatment groups as outlined in Table 1.
Sampling collection. PK samples (0.3 mL) were collected from the jugular vein by venepuncture into tubes containing K2EDTA anticoagulant at the following sampling times: Group 1 (IV) and Group 2 (oral) serial plasma collection at 0.083, 0.25, 0.5, 1, 3, 8 and 24 hr postdose; Group 4 (IV) composite plasma and brain collection at 0.083, 0.25, 0.5 and 1 hr postdose; Group 6 (inhalation) serial plasma collection at 0.333, 0.533, 0.833, 1.333, 3.333, 8.333 and 24.333 after start of inhalation.
Brain samples: After extraction of whole brain from the cranium, brains were rinsed, patted dry, weighed, placed into tubes and frozen on dry ice. Thereafter, they were stored at −70 […] pending analysis.
Bioanalysis. Plasma and brain homogenates were analyzed for DMT and DMT-d10 using an established LC-MS/MS assay.) Pharmacokinetic parameters were determined from the DMT and DMT-d 10 plasma and brain concentration-time profiles using commercially available software (Phoenix® WinNonlin®).

[2] = biological target: T1, serotonin 5-HT2A receptor (Mus musculus, UniProt P35363); experiment: Head twitch response (HTR) in mice, DMT-d10 with or without N2O; format: in vivo, mice (C57B16/J); conditions: DMT-d10 5.6 mg/kg s.c.; for head twitch responses (HTRs), result in words: mice, room air or N2O 50%, first 30 minutes; for Mean rank diff., total HTRs: Dunn's multiple comparisons, Veh/Air vs. treatment, N2O 50% inhaled
T1 construct: Mice were exposed to a medium dose of the 5-HT2A agonist DMT-d10; from tissue; host or cells: living adult male C57Bl6/J mice (in vivo behavioural assay)
Description: Experiment 1—Effect of N2O on the pharmacodynamic effects of DMT-d10. The dose-dependent behavioral effects of N2O on DMT-d10-induced head twitch response (HTR) in mice was determined.
Rationale: The head-twitch response (HTR) is a rapid side-to-side head movement that occurs in mice and rats after the serotonin 5-HT2A receptor is activated. The HTR is widely used as a behavioral assay for 5-HT2A activation and to probe for interactions between the 5-HT2A receptor and other transmitter systems (see Halberstadt, A. L. & Geyer, M. A. Characterization of the head-twitch response induced by hallucinogens in mice: detection of the behavior based on the dynamics of head movement. Psychopharmacology (Berl) 227, 10.1007/s00213-013-3006-z (2013); Canal, C. E. & Morgan, D. Head-twitch response in rodents induced by the hallucinogen 2,5-dimethoxy-4-iodoamphetamine: a comprehensive history, a re-evaluation of mechanisms, and its utility as a model. Drug Test Anal 4, 556-576 (2012)).
Data analysis: The number of head twitches over the first 30 minutes was summed (0-15 minutes, 15-30 minutes intervals) and analyzed by non-parametric Kruskal Wallis test with Dunn's multiple comparison tests between groups.

[3] = test system: Adult Male Laboratory Mice (C57B16/J); experiment: Locomotor activity (distance travelled, Ethovision) in mice; format: in vivo; conditions: DMT-d10 5.6 mg/kg s.c.; for Mean rank diff., total distance travelled: Dunn's multiple comparisons, Veh/Air vs. treatment, N2O 50% inhaled
[4] = test system: bdnf; experiment: RTqPCR gene expression in mouse left frontal cortex: bdnf; format: in vivo, mice (C57B16/J); conditions: 60 min treatment + 60 min room air, DMT-d10 5.6 mg/kg s.c., N2O 50% inhaled
[5] = test system: homer1; experiment: RTqPCR gene expression in mouse left frontal cortex: homer1; format: in vivo, mice (C57B16/J); conditions: 60 min treatment + 60 min room air, DMT-d10 5.6 mg/kg s.c., N2O 50% inhaled
[6] = test system: syn1; experiment: RTqPCR gene expression in mouse left frontal cortex: syn1; format: in vivo, mice (C57B16/J); conditions: 60 min treatment + 60 min room air, DMT-d10 5.6 mg/kg s.c., N2O 50% inhaled
[7] = test system: early growth response protein 2 (egr2); experiment: RTqPCR gene expression in mouse left frontal cortex: egr2; conditions: 60 min treatment + 60 min room air, DMT-d10 5.6 mg/kg s.c., N2O 50% inhaled
[8] = test system: fibroblast growth factor 2 (fgf2); experiment: RTqPCR gene expression in mouse left frontal cortex: fgf2; conditions: 60 min treatment + 60 min room air, DMT-d10 5.6 mg/kg s.c., N2O 50% inhaled
[9] = test system: serum/glucocorticoid regulated kinase 1 (sgk1); experiment: RTqPCR gene expression in mouse left frontal cortex: sgk1; conditions: 60 min treatment + 60 min room air, DMT-d10 5.6 mg/kg s.c., N2O 50% inhaled
[10] = test system: c-fos; experiment: RTqPCR gene expression in mouse left frontal cortex: c-fos; conditions: 60 min treatment + 60 min room air, DMT-d10 5.6 mg/kg s.c., N2O 50% inhaled
[11] = Plasma pharmacokinetics of co-administered DMT and DMT-d10 in male rats (IV bolus, oral gavage, inhalation); conditions: for time of highest plasma concentration (first time point taken): IV bolus 1 mg/kg each; for time of highest plasma concentration (first time point taken) / mean residence time (MRT) after inhalation compared to IV administration: male rats; for F (bioavailability), inhalation: inhalation 14.3 (DMT) + 15.5 (DMT-d10) mg/kg, calculated from dose normalized AUC0-1 mean values vs Group 4 IV; for mean residence time (MRT) after inhalation compared to IV administration: inhalation vs IV; for AUC0-1/dose: plasma
[12] = test system: head-twitch responses (HTRs); conditions: 1 mg/kg, intraperitoneal, rats and mice; cited from earlier work
[13] = test system: human participants; conditions: cited from earlier work
[14] = in vivo; cited from earlier work
[15] = rats, intraperitoneal injection; cited from earlier work
[16] = human, intravenous; cited from earlier work
[17] = test system: neural oscillations; experiment: Experiment 7: topographic pharmaco-EEG mapping of N2O+DMT (planned); conditions: healthy humans, following DMT administration
[18] = brain, male rats, IV bolus 1 mg/kg each (Group 4)
[19] = Inhalation 14.3 (DMT) / 15.5 (DMT-d10) mg/kg
[20] = IV bolus of DMT (as fumarate salt) 0.05-0.4 mg/kg

T1 sequence (P35363 whole entry): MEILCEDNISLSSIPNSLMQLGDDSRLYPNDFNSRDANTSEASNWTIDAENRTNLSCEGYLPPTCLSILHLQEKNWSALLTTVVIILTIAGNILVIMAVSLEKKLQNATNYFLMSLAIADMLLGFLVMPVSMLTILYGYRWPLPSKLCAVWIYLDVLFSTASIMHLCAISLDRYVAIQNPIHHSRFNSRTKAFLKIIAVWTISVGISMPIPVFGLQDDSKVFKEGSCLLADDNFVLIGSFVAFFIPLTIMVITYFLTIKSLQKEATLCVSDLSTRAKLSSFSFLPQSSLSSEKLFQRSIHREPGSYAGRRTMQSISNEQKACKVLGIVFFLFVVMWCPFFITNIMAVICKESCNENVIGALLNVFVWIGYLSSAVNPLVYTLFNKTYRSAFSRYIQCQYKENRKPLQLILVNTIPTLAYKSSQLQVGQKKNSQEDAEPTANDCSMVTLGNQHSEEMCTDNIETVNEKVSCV

| Structure (SMILES) | Brain AUC0-t [1, 18] | Brain Cmax ([1]; brain, male rats) | head twitch responses (HTRs), result in words [2] | Mean rank diff., total HTRs ([2]; minutes 0-15) | Mean rank diff., total HTRs ([2]; minutes 15-30) | Mean rank diff., total distance travelled ([3]; minutes 0-15) | Mean rank diff., total distance travelled ([3]; minutes 15-30) | bdnf gene expression, percentage change compared to control (Veh/Air), % mean [4] | homer1 gene expression, percentage change compared to control (Veh/Air), % mean [5] | syn1 gene expression, percentage change compared to control (Veh/Air), % mean [6] | egr2 gene expression, percentage change compared to control (Veh/Air), % mean [7] | fgf2 gene expression, percentage change compared to control (Veh/Air), % mean [8] | sgk1 gene expression, percentage change compared to control (Veh/Air), % mean [9] | c-fos gene expression, percentage change compared to control (Veh/Air), % mean [10] | time of highest plasma concentration (first time point taken) [11] | F (bioavailability), inhalation [11] | mean residence time (MRT) after inhalation compared to IV administration [11] | AUC0-1/dose [11, 19] | AUC0-1/dose ([11]; Intravenous 1 mg/kg each) | AUC0-1/dose ([11]; Oral 10 mg/kg each) | further results |
| --- | --- | --- | --- | --- | --- | --- | --- | --- | --- | --- | --- | --- | --- | --- | --- | --- | --- | --- | --- | --- | --- |
| [2H]C([2H])([2H])N(C([2H])([2H])[2H])C([2H])([2H])C([2H])([2H])c1c[nH]c2ccccc12 [DMT-d10] | 931 ng·h/g | 1490 ng/g | modest number of HTRs | −22.65 | −12.80 | 16.50 | 19.30 | −9.25% | 2.44% | 1.47% | 8.24% | 3.13% | 15.58% | 18.57% | 0.083 h | 22.6% | approximately 5 × | 17.0 | 75.4 | 0.878 | improvement of brain to plasma (B/P) ratio by deuteration ([1]; DMT-d10 vs. DMT, IV 1 mg/kg, rats): approximately 30%; distance travelled (locomotor behavior), result in words ([3]; mice, room air or N2O 50%, minutes 0-15 and 15-30): travelled less distance than the vehicle/air group; increase of inhalation bioavailability by deuteration ([11]; DMT-d10 vs. DMT, inhalation, rats): approximately 40% |
| CN(C)CCc1c[nH]c2ccccc12 [DMT, N,N-dimethyltryptamine] | 1060 ng·h/g | 3430 ng/g |  |  |  |  |  |  |  |  |  |  |  |  | 0.083 h | 16.3% | approximately 5 × | 18.2 | 112 | 1.52 | Brain AUC0-inf [1, 18]: 1070 ng·h/g; hallucinogenic potential as measured by head-twitch responses (HTRs) [12]: sub-hallucinogenic; hallucinogenic effect ([13]; 0.1 mg/kg IV): not hallucinogenic; hallucinogenic effect ([13]; 0.2 and 0.4 mg/kg IV): nearly instantaneous onset of visual hallucinatory phenomena; time by which psycho-biological effects resolve [13, 20]: ≤ 30 minutes; time of peak of psycho-biological effects [13, 20]: 120 seconds; duration of effect of vaporized DMT ([13]; vaporized or inhaled free-base, 40-50 mg): less than 30 min; elimination half-life [14]: 12 to 19 min; half-life [15]: 5 to 15 min; time to be metabolized and cleared from brain, liver, and plasma [15]: ≤ 1 h; half-life [16]: around 15 minutes; time to peak plasma concentrations [16]: approximately 2 minutes; absolute power in EEG frequency bands [17]: decreased absolute power in all frequency bands |
| [N-]=[N+]=O [N2O, nitrous oxide] |  |  | attenuates DMT-d10-induced HTRs | −1.250 | 0.000 | −11.40 | −8.000 | 15.67% | 29.35% | 13.38% | 38.30% | 5.24% | 33.82% | 32.29% |  |  |  |  |  |  |  |
| COc1ccc2[nH]cc(CCN(C)C)c2c1 [5-MeO-DMT, 5-methoxy-N,N-dimethyltryptamine] |  |  |  |  |  |  |  |  |  |  |  |  |  |  |  |  |  |  |  |  | elimination half-life [14]: 12 to 19 min |
